“Also recorded” adds a separate entry of the source.
Experiments:
[1] = target: T1, Fgr (Mus musculus, UniProt P14234); assay: Western blot of Fgr phosphorylation in tdTOMp16+ cells (phospho-Fgr antibody); format: cell-based
T1 construct: endogenous in cells; host or cells: tdTOMp16+ mouse bone marrow stromal (MSC) cell line, irradiated, senescent tdTOM+ cells
Description: FIG. 7A-FIG. 7B show shRNA knockdown of Fgr in vitro and inhibition of activation of Fgr by TL02-59. FIG. 7A) The tdTOMp16+ cell line was transfected with three individual Fgr shRNAs. […] (Phospho-FGR (Tyr412) Rabbit Polyclonal Antibody. Company: Thermo Fisher Scientific, Catalogue #PA5-64583).
FIG. 23A-FIG. 23C. […] FIG. 23A—Irradiated tdTOMp16+ non-senescent (tdTOM−) and senescent (tdTOM+) cells were cultured on the top well of the transwell, and the target C57BL/6 stromal cells were cultured on the bottom well. Cells were treated with either vehicle or 10 nM Fgr inhibitor TL02-59 and after 10 days, target cells were harvested for RNA, and RT-qPCR was performed for TGF-β and Collagen 3 genes. FIG. 23B—Inhibition of Fgr phosphorylation by TL02-59 was confirmed by western blot from the vehicle and TL02-59-treated cell lysates of irradiated senescent (tdTOM+) cells (n=3, *P=<0.05; **P=0.01). […] NS nonsignificant), P values were calculated by t test.
The role of Fgr in fibrosis induction was next investigated by two methods of inhibition: first, pharmacologic inhibition of Fgr was applied by adding the Fgr-specific small-molecule inhibitor TL02-59 (FIG. 23A, FIG. 23B). […] Using the transwell non-contact coculture system, the effect of a specific inhibitor of Fgr TL02-59 (10 nM) on the induction of biomarkers of fibrosis in target cells by tdTOM+ senescent cells was measured for 10 days. […]

[2] = tested on: gfp+ bone marrow cells; assay: Transwell cell migration assay, gfp+ bone marrow cells towards senescent cells (3-micron filter); format: cell-based, mouse; settings: TL02-59 10 nM, 48 h, FIG. 45A, C, D
Description: FIG. 45A-FIG. 45F. […] FIG. 45A—The tdTOMp16+ cells either irradiated or non-irradiated were sorted by FACS for either tdTOM+ or tdTOM− cells, and each population was placed in the bottom chamber of each culture, well separated by a 3-micron filter. Gfp+ bone marrow cells were placed on the top chamber of each well and migration assay was carried out (3-micron membrane). The Fgr inhibitor TL02-59 (10 nM) (Shen K et al. Sci Signal 11(553): eaat5916, 2018) or RS 504393 (10 μM), a Ccl2 inhibitor, which is a CCR2 chemokine receptor antagonist, was added to cultures 24 h later. The migration of gfp+ bone marrow cells from the top chamber through the 3-micron filter to the bottom chamber was imaged and total gfp+ cells were counted. FIG. 45B—Image of gfp+ migrating cells through the filter at 24 h for each condition (×100). At 48 h, emigrated gfp+ cells in the bottom well were counted by FACS. After 48 h, migrating total. (FIG. 45C) gfp+ cells, and (FIG. 45D) gfp+ CD45+ cells were counted by FACS. […] Cell migration from the top wells to the bottom wells was evaluated by imaging and by (FIG. 45F) FACS analysis. (n=3, ****p=0.0001). p-Values were calculated by the t-test.
In vitro transwell experiments. […] The migration of gfp+ cells through the filter to the bottom compartment was measured by imaging the bottom wells and counting gfp+ cells relative to numbers of senescent TOM+ (red) cells. […]

[3] = tested on: tdTOMp16+ red senescent cells; assay: Chemokine array of media from sorted senescent tdTOMp16+ cells; format: cell-based, mouse; settings: TL02-59 10 nM, 72 hours, FIG. 50
Description: FIG. 50. […] Using chemokine array relative amounts of chemokines secreted in the media was measured. (n=2, *, p<0.05, p values were calculated using unpaired t-test).

[4] = mice; cited from earlier work

T1 sequence (P14234 whole entry): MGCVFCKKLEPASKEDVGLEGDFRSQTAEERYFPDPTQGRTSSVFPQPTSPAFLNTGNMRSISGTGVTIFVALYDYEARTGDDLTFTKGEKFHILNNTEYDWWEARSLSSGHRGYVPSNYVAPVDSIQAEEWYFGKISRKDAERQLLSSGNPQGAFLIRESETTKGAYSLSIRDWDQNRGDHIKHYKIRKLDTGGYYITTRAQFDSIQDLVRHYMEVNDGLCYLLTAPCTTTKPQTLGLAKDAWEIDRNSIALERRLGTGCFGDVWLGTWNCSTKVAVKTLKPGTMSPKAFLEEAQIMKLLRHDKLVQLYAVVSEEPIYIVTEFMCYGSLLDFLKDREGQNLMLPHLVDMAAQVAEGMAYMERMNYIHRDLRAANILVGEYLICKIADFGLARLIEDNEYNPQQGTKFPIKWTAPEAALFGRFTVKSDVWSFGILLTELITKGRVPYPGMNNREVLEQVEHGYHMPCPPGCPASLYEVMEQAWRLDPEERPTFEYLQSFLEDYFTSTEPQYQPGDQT

CCN1CCN(Cc2ccc(NC(=O)c3ccc(C)c(Oc4ncnc5cc(OC)c(OC)cc45)c3)cc2C(F)(F)F)CC1 [TL02-59]
phosphorylation of Fgr (Tyr412) ([1]; 0.1 μM TL02-59, tdTOMp16+ cell line, FIG. 7B): Inhibition of phosphorylation of Fgr | Fgr phosphorylation in irradiated senescent (tdTOM+) cells, western blot ([1]; vehicle vs TL02-59 treated cell lysates, FIG. 23): inactivated Fgr; also recorded: inhibited | migration of gfp+ monocyte/macrophages towards senescent cells from irradiated tdTOMp16+ stromal cell line [2]: abrogated monocyte/macrophages recruitment; also recorded: significantly reduced the migration; also recorded: inhibited; also recorded: prevents migration | secretion of senescence associated secretory chemokines (chemokine array) [3]: reduces secretion of senescence associated secretory chemokines | oral bioavailability [4]: orally bioavailable | plasma half-life [4]: 6 h

Source: patent US20240182893A1, “INHIBITION OF FGR REDUCES FIBROSIS” (UNIVERSITY OF PITTSBURGH-OF THE COMMONWEALTH SYSTEM OF …, priority 2021, published 2024)
